{"source": "patent US20250304623A1", "about": "“PEPTIDES FOR INTRACELLULAR DELIVERY” (UNIVERSIDADE DE SANTIAGO DE COMPOSTELA, priority 2022, published 2025)", "assay_type_in_all_cases": "cell-based", "key": {"[1]": {"system": "Hela cells", "assay": "RLuc pDNA delivery, robotic library screening, HeLa", "method": "Cells were seeded in a 96 well plate the day before the experiment at a concentration of 60,000 cell/mL (100 μL/w) in DMEM+10% FBS+1% Gln-Abt. For robotic library screening, the delivery of pDNA encoding for the expression of Renilla luciferase gene (RLuc, pRL-CMV (Promega, #E2261)) in six different cell lines was performed. […] The mixture was shaken for 30 min at room temperature before the addition to the cells. The cell medium was aspirated, and cells were washed twice with PBS. Finally, 50 μL of the complex's solution were added to the cells and incubated for 4 h. After the incubation, the medium was replaced by 100 μL of fresh DMEM supplemented with 10% FBS. 72 hours after transfection the DMEM was removed, cells were washed once with HBSS and 90 μL of HBSS were added to each well. Cells were incubated at 37° C. for 30 minutes. Then basal luminescence levels were read in a plate reader. Immediately, 10 μL of coelenterazine h in HBSS were added to each well (5 μM final concentration) and cells were incubated at 37° C. for 10 minutes. Finally, the total luminescence measurement of the plates was performed. Amphiphile transfection efficiency was compared and normalized to Lipofectamine® 2000 efficiency (value of 1 in Tables 1-5 and 7; bold numbers). All experiments were done in triplicate.\n(§1) Tables 1-7: RLuc (pDNA) or EGFP (mRNA) expression levels were normalized to Lipofectamine reagents (value=1) and expressed as fold-times signal increase. In the case of siRNA, the siRNA treated cells fluorescence was compared with siMOCK control fluorescence, while Cas9-RNP mediated knockout was measured against the fluorescence of untreated cells. In both siRNA and Cas9-RNP, values are expressed as % fluorescence reduction. Amphiphile concentration was 5 μM in all cases. All experiments were performed in triplicate.\nTables 8-13 show the mean (triplicates) luminescent intensity (RLU) measured after the transfection of RLuc pDNA by different amphiphiles at different concentrations in a variety of cell lines. Background luminescence values, accounted by untransfected control cells, were subtracted for processing."}, "[2]": {"system": "A549 cells", "assay": "EGFP mRNA delivery, robotic library screening, A549", "method": "Cells were seeded in a 96 well plate the day before the experiment at a concentration of 50,000 cell/mL (100 μL/w) in DMEM+10% FBS+1% Gln-Abt. For robotic library screening, the delivery of EGFP-mRNA (from TriLink, fully substituted with 5-methoxyuridine, capped and polyadenylated; TriLink, CleanCap® EGFP mRNA (5moU), ref. L-7201) in six different cell lines was performed. Amphiphilic molecule stock solutions were prepared in DMSO as described above and diluted in DMEM to afford a range of concentrations. The solutions of EGFP-mRNA/amphiphilic molecule complexes were freshly prepared prior to the transfection experiments. 35 μL of the corresponding amphiphile were added to 10 μL of a solution of EGFP-mRNA at 10 ng/μL in DMEM. The mixture was shaken for 30 min at room temperature before the addition to the cells. The cell medium was aspirated, and cells were washed with PBS twice. Cells were covered with 39 μL of DMEM and 11 μL of the complex's solution were added to the cells and incubated for 4 h (final concentration of peptide=2.5, 5 and 10 μM; final concentration of EGFP-mRNA=25 ng/well). After the incubation, the medium was replaced by 100 μL of fresh DMEM supplemented with 10% FBS. The total EGFP fluorescence was quantified after 72 h in a well plate reader. Amphiphile transfection efficiency was compared and normalized to Lipofectamine® MessengerMax efficiency (value of 1 in Tables 1-5 and 7; double underlined numbers). All experiments were done in triplicate.\nas §1\nTables 14-19 show the mean (triplicates) fluorescence intensity measured after the transfection of EGFP mRNA by different amphiphiles at different concentrations in a variety of cell lines. Background fluorescence values, accounted by untreated control cells, were subtracted for processing."}, "[3]": {"system": "HCT116 cells expressing EGFP", "assay": "EGFP-targeting siRNA delivery (GFP silencing vs siMOCK), HCT116", "method": "To generate an EGFP expressing HeLa cell line, HeLa cells were transfected with EGFP pDNA (pEGFP-C1, Clontech) and stable transfectants were selected with 400 μg/mL of G-418 (Millipore). Green clones were selected by epifluorescence microscopy and tested for EGFP expression stability through several passages. […] All other EGFP-expressing cell lines were obtained in a similar way from parent non-EGFP-expressing cell lines.\nCells expressing EGFP were seeded in a 96 well plate the day before the experiment at a concentration of 50,000 cell/mL (100 μL/w) in DMEM+10% FBS+1% Gln-Abt. For robotic library screening, the delivery of an EGFP-targeting siRNA (EGFP: enhanced green fluorescent protein, Ambion® Silencer® GFP Positive Control siRNA (siGFP) (AM4626)) in six different cell lines expressing EGFP was performed. Amphiphilic molecules stock solutions in DMSO were diluted with DMEM and freshly mixed with siRNA stock solutions in DMEM prior to transfection experiments, to afford several complexes at different amphiphile concentration (2-10 μM) while maintaining a constant final siRNA concentration of 30 nM. The mixture was shaken for 30 min at room temperature (rt) before the addition to the cells. The cell medium was aspirated, and cells were washed twice with PBS. Finally, 50 μL of the solution of siRNA/amphiphile complexes were added to the cells and incubated for 4 h. After transfection, the medium was replaced by 100 μL of fresh DMEM supplemented with 10% FBS. The fluorescence knockdown was quantified after 72 h in a plate reader, by comparison with cells transfected with a non-targeting siRNA control (siMOCK, Silencer™ Negative Control No. 1 siRNA (siMOCK) (AM4611)). EGFP knockdown was compared with Lipofectamine® RNAiMAX silencing efficiency (30-60% depending on cell line, defined with a numeric value in the below tables). All experiments were done in triplicate.\nas §1\nTables 20-25 show the mean (triplicates) percentage of GFP-silencing, accounted by fluorescence intensity decrease relative to a non-targeting siRNA (siMOCK) control, measured after the transfection of siRNA by different amphiphiles at different concentrations in a variety of cell lines. Background values, accounted by untreated control cells, were subtracted for processing."}}, "note": "Starred links: 1 amine or outer side, 2 acyl side, 3 side chain; linkers in the order of their positions; H or OH if unused. Residues, ends and D or L forms follow the SMILES beside them. Groups on a side chain read outwards from the residue. *: point of attachment. Glutaryl = O=C(CCCC(=O)[*:2])[*:1]; NHNH2 = NN*"}
{"smiles": "CC(=O)N[C@@H](CCCNC(=N)N)C(=O)N[C@@H](CCCCNC(=O)CCCC(=O)NN)C(=O)N[C@@H](Cc1c[nH]cn1)C(=O)N[C@@H](CCCNC(=N)N)C(=O)N[C@@H](CCCCNC(=O)CCCC(=O)NN)C(=O)N[C@@H](CCCCNC(=O)CCCC(=O)NN)C(=O)N[C@@H](Cc1c[nH]cn1)C(N)=O", "note": "[7.3(L-H), Ac-RK*HRK*K*H-NH2] (Ac-RK([Glutaryl-NHNH2])HRK([Glutaryl-NHNH2])K([Glutaryl-NHNH2])H-NH2)", "values": [{"measurement": "mean luminescent intensity (RLuc pDNA)", "setting": "[1]; HeLa, Petroselinyl, 10 μM", "value": 107063, "unit": "RLU"}, {"measurement": "mean luminescent intensity (RLuc pDNA)", "setting": "[1]; Hela, Myristoleyl, 5 μM", "value": 122581, "unit": "RLU"}, {"measurement": "mean luminescent intensity (RLuc pDNA)", "setting": "[1]; Hela, Myristoleyl, 10 μM", "value": 115599, "unit": "RLU"}, {"measurement": "mean luminescent intensity (RLuc pDNA)", "setting": "[1]; Hela, Myristoleyl, 15 μM", "value": 25022, "unit": "RLU"}, {"measurement": "mean luminescent intensity (RLuc pDNA)", "setting": "[1]; Hela, Palmitoleyl, 5 μM", "value": 226412, "unit": "RLU"}, {"measurement": "mean luminescent intensity (RLuc pDNA)", "setting": "[1]; Hela, Palmitoleyl, 10 μM", "value": 180751, "unit": "RLU"}, {"measurement": "mean luminescent intensity (RLuc pDNA)", "setting": "[1]; Hela, Palmitoleyl, 15 μM", "value": 31589, "unit": "RLU"}, {"measurement": "mean luminescent intensity (RLuc pDNA)", "setting": "[1]; Hela, Petroselinyl, 5 μM", "value": 282134, "unit": "RLU"}, {"measurement": "mean luminescent intensity (RLuc pDNA)", "setting": "[1]; Hela, Petroselinyl, 15 μM", "value": 13233, "unit": "RLU"}, {"measurement": "mean fluorescence intensity (EGFP mRNA)", "setting": "[2]; Dodecanal, 2.5 μM", "value": 570}, {"measurement": "mean fluorescence intensity (EGFP mRNA)", "setting": "[2]; Dodecanal, 5 μM", "value": 375}, {"measurement": "mean fluorescence intensity (EGFP mRNA)", "setting": "[2]; Dodecanal, 10 μM", "value": 587}, {"measurement": "mean fluorescence intensity (EGFP mRNA)", "setting": "[2]; Myristoleyl, 2.5 μM", "value": 19549}, {"measurement": "mean fluorescence intensity (EGFP mRNA)", "setting": "[2]; Myristoleyl, 5 μM", "value": 6729}, {"measurement": "mean fluorescence intensity (EGFP mRNA)", "setting": "[2]; Myristoleyl, 10 μM", "value": 2718}, {"measurement": "mean fluorescence intensity (EGFP mRNA)", "setting": "[2]; Oleyl, 2.5 μM", "value": 12392}, {"measurement": "mean fluorescence intensity (EGFP mRNA)", "setting": "[2]; Oleyl, 5 μM", "value": 4708}, {"measurement": "mean fluorescence intensity (EGFP mRNA)", "setting": "[2]; Oleyl, 10 μM", "value": 1954}, {"measurement": "mean fluorescence intensity (EGFP mRNA)", "setting": "[2]; Palmitoleyl, 2.5 μM", "value": 52764}, {"measurement": "mean fluorescence intensity (EGFP mRNA)", "setting": "[2]; Palmitoleyl, 5 μM", "value": 19296}, {"measurement": "mean fluorescence intensity (EGFP mRNA)", "setting": "[2]; Palmitoleyl, 10 μM", "value": 3995}, {"measurement": "mean fluorescence intensity (EGFP mRNA)", "setting": "[2]; Petroselinyl, 2.5 μM", "value": 9125}, {"measurement": "mean fluorescence intensity (EGFP mRNA)", "setting": "[2]; Petroselinyl, 5 μM", "value": 2712}, {"measurement": "mean fluorescence intensity (EGFP mRNA)", "setting": "[2]; Petroselinyl, 10 μM", "value": "−119"}, {"measurement": "mRNA delivery relative to Lipofectamine MessengerMAX", "setting": "[2]; palmitoleyl aldehyde", "value": "two times better"}, {"measurement": "percentage of GFP-silencing relative to siMOCK", "setting": "[3]; Dodecanal, 5 μM", "value": "−10", "unit": "%"}, {"measurement": "percentage of GFP-silencing relative to siMOCK", "setting": "[3]; Dodecanal, 10 μM", "value": 5, "unit": "%"}, {"measurement": "percentage of GFP-silencing relative to siMOCK", "setting": "[3]; Myristoleyl, 10 μM", "value": 49, "unit": "%"}, {"measurement": "percentage of GFP-silencing relative to siMOCK", "setting": "[3]; Myristoleyl, 15 μM", "value": 3, "unit": "%"}, {"measurement": "percentage of GFP-silencing relative to siMOCK", "setting": "[3]; Oleyl, 5 μM", "value": 24, "unit": "%"}, {"measurement": "percentage of GFP-silencing relative to siMOCK", "setting": "[3]; Oleyl, 15 μM", "value": 46, "unit": "%"}, {"measurement": "percentage of GFP-silencing relative to siMOCK", "setting": "[3]; Palmitoleyl, 5 μM", "value": 21, "unit": "%"}, {"measurement": "percentage of GFP-silencing relative to siMOCK", "setting": "[3]; Palmitoleyl, 10 μM", "value": 56, "unit": "%"}, {"measurement": "percentage of GFP-silencing relative to siMOCK", "setting": "[3]; Palmitoleyl, 15 μM", "value": 38, "unit": "%"}, {"measurement": "percentage of GFP-silencing relative to siMOCK", "setting": "[3]; Petroselinyl, 5 μM", "value": 4, "unit": "%"}, {"measurement": "percentage of GFP-silencing relative to siMOCK", "setting": "[3]; Petroselinyl, 10 μM", "value": 24, "unit": "%"}, {"measurement": "percentage of GFP-silencing relative to siMOCK", "setting": "[3]; Petroselinyl, 15 μM", "value": 43, "unit": "%"}]}
